The text below walks through data of patent publication US9884825B2, “Curcumin analogs and methods of making and using thereof” (Georgia State University Research Foundation, Inc., priority 2012, dated 2018).

The test system of data set [1] is DU145 cell. The data set can be described thus: Cytotoxicity against DU145 cell line. As to conditions: Homo sapiens, DU-145, mean ± spread, unit inferred, read-out: IC50 DU145 cell (Table 6). The format is cell-based.
The test system of data set [2] is human cervical cancer cells (HeLa). In words: MTT cytotoxicity assay, HeLa cells. Format: cell-based. As to conditions: for IC50: Homo sapiens; for cytotoxicity against HeLa cells, in words: screening at 50 μM, 20 μM and 2 μM (FIGS. 1-2). The protocol: (§1) Two cell human cancer cell lines were used in this study: human cervical cancer cells (HeLa) and human embryonic kidney 293 cells (Hek). The cell lines were obtained from ATCC (Rockville, Md., USA). Cell lines were cultured at 37° C. and 5% CO2 in DMEM medium with 10% fetal bovine serum (FBS) and 1% penicillin/streptomycin (all obtained from GibcoBRL, Grand Island, N.Y.). Cells were passaged three times weekly by trypsinisation with 0.25% trypsin/0.02% EDTA solution (Sigma) into 75 cm^2 tissue culture flasks (Nunc, Denamark).
(§2) Both human cervical cancer cells (HeLa) and human embryonic kidney 293 cells (Hek) cell lines were seeded into 96-well plate (2.5×10^4 in 100 μL per well). Testing compounds were dissolved or suspended in DMSO to make 10 mM stock solutions. Addition of compounds was performed after adherent cells reached 40-50% confluence. After incubation for 48 h at 37° C. in humidified atmosphere with 5% CO2, 10 μL of MTT (5 mg/mL in PBS) was added to each well and incubated for another 4 h. The culture medium was then aspirated and 100 μL of DMSO was added to each well. Optical densities at 490 nm were measured by microplate reader (PERKINELMER VICTOR 3V model 1420). All tests were performed in triplicates. Doxorubicin was used as a positive control and the same amount DMSO without compound was used as negative control. IC50 values were obtained from the curve fitting by using Sigma plot10.

Data set [3] relates to PC3 cell. In words: Cytotoxicity against PC3 cell line. The format is cell-based. Particulars: Homo sapiens, PC-3, mean ± spread, unit inferred, read-out: IC50 PC3 cell (Table 6).
Data set [4] deals with KB cell. The data set can be described thus: Cytotoxicity against KB cell line. Format: cell-based. As to conditions: Homo sapiens, mean ± spread, unit inferred, read-out: IC50 KB cell (Table 6).
The subject of data set [5] is human embryonic kidney 293 cells (Hek). The data set can be described thus: MTT cytotoxicity assay, Hek cells. Format: cell-based. Particulars: Hek 293 cells, 48 h incubation. The protocol: as §1, §2
Where [6] appears, read: HeLa cell, mean ± spread, unit inferred, read-out: IC50 HeLa cell (Table 6).
The mark [7] stands for this setting: HeLa cells, MTT assay, 48 h incubation, read-out: IC50 (μM) Hela.
The mark [8] stands for this setting: HeLa cells, MTT assay, range or bound stated in text, read-out: IC50 against HeLa cancer cell lines.

Read-outs that look alike come from different tables or passages of the source.

`O=C1/C(=C/c2ccc(Br)cc2)CN(Cc2cn(CCNc3ccnc4cc(Cl)ccc34)nn2)C/C1=C\c1ccc(Br)cc1` [SR14]: the IC50 in data set [1] came out at 6600 ± 4600 nM; in data set [2] (setting [6]), 2.7 ± 1.3 µM; in data set [3], 1500 ± 240 nM; in data set [4], 1200 ± 320 nM.
Compound `O=C1/C(=C/c2ccc(Cl)cc2)CN(S(=O)(=O)c2ccccc2)C/C1=C\c1ccc(Cl)cc1` [4e, 3,5-Bis(4-chlorobenzylidene)-1-(phenylsulfonyl)piperidin-4-one] came in with a melting point of 237 °C. In data set [5], the IC50 was 1.97 µM. In data set [5] (Homo sapiens, HEK293, 48 h), this compound displayed a half-inhibitory concentration (IC50) of 1.24 to 3.54 µM. Moreover, the IC50 in data set [2] (setting [7]) is 0.85 µM. Besides, the IC50 in data set [2] (setting [8]) was in the range of 0.3 to 1.5 µM. Moreover, the “cytotoxicity against HeLa cells, in words” value in data set [2] (MTT assay) is reported as “very good activity”.
Consider `CCN1C/C(=C\c2ccc(C(C)C)cc2)C(=O)/C(=C/c2ccc(C(C)C)cc2)C1` [6g, 1-Ethyl-3,5-bis(4-isopropylbenzylidene)piperidin-4-one], for which the IC50 in data set [5] was 1.78 µM; in data set [5] (Homo sapiens, HEK293, 48 h) it was 1.24 to 3.54 µM; in data set [2] (setting [7]), 0.86 µM; in data set [2] (setting [8]), under 1 µM. In addition, the “cytotoxicity against HeLa cells, in words” value in data set [2] (MTT assay) is “very good activity”.
On to `O=C1/C(=C/c2ccc(F)cc2)CN(Cc2cn(CCCNc3ccnc4cc(Cl)ccc34)nn2)C/C1=C\c1ccc(F)cc1` [SR39], for which the IC50 is 5300 ± 2800 nM in data set [1], 2.6 ± 1.4 µM in data set [2] (setting [6]), 3000 ± 750 nM in data set [3] and 2600 ± 690 nM in data set [4].
Regarding `COc1ccc(/C=C2\CN(Cc3cn(CCCNc4ccnc5cc(Cl)ccc45)nn3)C/C(=C\c3ccc(OC)cc3)C2=O)cc1` [SR37], the half-inhibitory concentration (IC50) worked out at 6700 ± 1900 nM in data set [1], 5 ± 2.2 µM in data set [2] (setting [6]), 11000 ± 2700 nM in data set [3] and 4700 ± 870 nM in data set [4].
Consider `COc1ccc(/C=C2\CN(Cc3cn(CCCNc4ccnc5cc(Cl)ccc45)nn3)C/C(=C\c3ccc(OC)c(OC)c3)C2=O)cc1OC` [SR38], for which the IC50 in data set [1] came to 6700 ± 4400 nM; in data set [2] (setting [6]), 2.5 ± 1.3 µM; in data set [3] it was 2600 ± 400 nM; in data set [4] it was 2100 ± 50 nM.
For `O=C1/C(=C/c2ccc(Cl)cc2)CN(Cc2cn(CCCNc3ccnc4cc(Cl)ccc34)nn2)C/C1=C\c1ccc(Cl)cc1` [SR40] the same measures were 1900 ± 620 nM, 1.8 ± 0.65 µM, 1800 ± 680 nM and 1800 ± 290 nM.
For `O=C1/C(=C/c2cccc(Br)c2)CN(Cc2cn(CCNc3ccnc4cc(Cl)ccc34)nn2)C/C1=C\c1cccc(Br)c1` [SR17] the same measures were 9600 ± 7300 nM, 2.5 ± 1.2 µM, 2800 ± 800 nM and 4300 ± 2400 nM.
For `Cc1ccc(/C=C2\CN(Cc3cn(CCCNc4ccnc5cc(Cl)ccc45)nn3)C/C(=C\c3ccc(C)cc3)C2=O)cc1` [SR34] the same measures were 4000 ± 490 nM, 2.8 ± 0.93 µM, 2700 ± 800 nM and 4700 ± 1100 nM.
Turning to `O=C1/C(=C/c2ccc(Br)cc2)CN(S(=O)(=O)c2ccccc2)C/C1=C\c1ccc(Br)cc1` [4i, 3,5-Bis(4-bromobenzylidene)-1-(phenylsulfonyl)piperidin-4-one], the melting point was 247 °C. In data set [2] (setting [7]), the IC50 came to 1.44 µM. The IC50 in data set [2] (setting [8]) lay in the range of 0.3 to 1.5 µM.
As to `CC(C)c1ccc(/C=C2\CN(S(=O)(=O)c3ccccc3)C/C(=C\c3ccc(C(C)C)cc3)C2=O)cc1` [4c, 3,5-Bis(4-isopropylbenzylidene)-1-(phenylsulfonyl)piperidin-4-one], the melting point came out at 170 °C.
As to `CCc1ccc(/C=C2\CN(Cc3cn(CCNc4ccnc5cc(Cl)ccc45)nn3)C/C(=C\c3ccc(CC)cc3)C2=O)cc1` [SR13], the half-inhibitory concentration (IC50) in data set [1] worked out at 6500 ± 3000 nM; in data set [2] (setting [6]), 5.3 ± 2.8 µM; in data set [3], 3700 ± 2100 nM; in data set [4], 3700 ± 210 nM.
Turning to `O=C1/C(=C/c2ccc(F)cc2)CN(S(=O)(=O)c2ccccc2)C/C1=C\c1ccc(F)cc1` [4j, 3,5-Bis(4-fluorobenzylidene)-1-(phenylsulfonyl)piperidin-4-one], the melting point turned out to be 181 °C.
On the same count and under the same terms, as for `CCCCc1ccc(C=C2CN(Cc3cn(CCC)nn3)CC(=Cc3ccc(CCCC)cc3)C2=O)cc1` [16a, 3,5-Bis(4-butylbenzylidene)-1-[(1-propyl-1H-1,2,3-triazol-4-yl)methyl]piperidin-4-one], the figure is 127 °C; as for `CCCCc1ccc(C=C2CN(Cc3cn(CCCC)nn3)CC(=Cc3ccc(CCCC)cc3)C2=O)cc1` [16b, 1-[(1-Butyl-1H-1,2,3-triazol-4-yl)methyl]-3,5-bis(4-butylbenzylidene)piperidin-4-one], 136 °C; as for `CCCCn1cc(CN2CC(=Cc3ccc(C(C)C)cc3)C(=O)C(=Cc3ccc(C(C)C)cc3)C2)nn1` [13b, 1-((1-Butyl-1H-1,2,3-triazol-4-yl)methyl)-3,5-bis(4-isopropylbenzylidene)piperidin-4-one], 145 °C.
On the same count and under the same terms, in the case of `CCCCc1ccc(/C=C2\CN(S(=O)(=O)c3ccccc3)C/C(=C\c3ccc(CCCC)cc3)C2=O)cc1` [4g, 3,5-Bis(4-butylbenzylidene)-1-(phenylsulfonyl)piperidin-4-one] it was 134 °C.
Regarding `O=C1/C(=C/c2ccc(F)cc2)CN(Cc2cn(CCNc3ccnc4cc(Cl)ccc34)nn2)C/C1=C\c1ccc(F)cc1` [SR16], the IC50 came to 3700 ± 2400 nM in data set [1], 2.2 ± 0.93 µM in data set [2] (setting [6]), 2000 ± 50 nM in data set [3] and 2600 ± 410 nM in data set [4].
Turning to `C#CCN1CC(=Cc2ccc(C(C)C)cc2)C(=O)C(=Cc2ccc(C(C)C)cc2)C1` [10c, 3,5-Bis(4-isopropylbenzylidene)-1-(prop-2-ynyl)piperidin-4-one], the melting point stood at 106 °C.
The same measure, in the same setting: as for `CCCCn1cc(CN2CC(=Cc3ccc(CC)cc3)C(=O)C(=Cc3ccc(CC)cc3)C2)nn1` [12b, 1-((1-Butyl-1H-1,2,3-triazol-4-yl)methyl)-3,5-bis(4-ethylbenzylidene)piperidin-4-one], the figure is 150 °C; as for `CCCCCn1cc(CN2CC(=Cc3ccc(C(C)C)cc3)C(=O)C(=Cc3ccc(C(C)C)cc3)C2)nn1` [13c, 3,5-Bis(4-isopropylbenzylidene)-1-((1-pentyl-1H-1,2,3-triazol-4-yl)methyl)piperidin-4-one], 143 °C; as for `CCCCCn1cc(CN2CC(=Cc3ccc(C)cc3)C(=O)C(=Cc3ccc(C)cc3)C2)nn1` [11c, 3,5-Bis(4-methylbenzylidene)-1-((1-pentyl-1H-1,2,3-triazol-4-yl)methyl)piperidin-4-one], 169 °C.
The same measure, in the same setting: as for `Cc1ccc(/C=C2\CN(S(=O)(=O)c3ccccc3)C/C(=C\c3ccc(C)cc3)C2=O)cc1` [4a, 3,5-Bis(4-methylbenzylidene)-1-(phenylsulfonyl)piperidin-4-one], the figure is 211 °C; as for `CCCCCn1cc(CN2CC(=Cc3ccc(CCC)cc3)C(=O)C(=Cc3ccc(CCC)cc3)C2)nn1` [15c, 1-[(1-Pentyl-1H-1,2,3-triazol-4-yl)methyl]-3,5-bis(4-propylbenzylidene)piperidin-4-one], 134 °C.
The same measure, in the same setting: as for `CCc1ccc(/C=C2\CN(Cc3ccccc3)C/C(=C\c3ccc(CC)cc3)C2=O)cc1` [5c, 1-Benzyl-3,5-bis-(4-ethyl-benzylidene)-piperidin-4-one], the figure is 119 °C.
As to `O=C1/C(=C/c2ccc(Br)cc2)CN(Cc2cn(CCCNc3ccnc4cc(Cl)ccc34)nn2)C/C1=C\c1ccc(Br)cc1` [SR36], the IC50 turned out to be 1900 ± 590 nM in data set [1], 2 ± 1.2 µM in data set [2] (setting [6]), 1700 ± 240 nM in data set [3] and 1500 ± 300 nM in data set [4].
`CCCCn1cc(CN2CC(=Cc3ccc(C(C)(C)C)cc3)C(=O)C(=Cc3ccc(C(C)(C)C)cc3)C2)nn1` [14b, 1-[(1-Butyl-1H-1,2,3-triazol-4-yl)methyl]-3,5-bis(4-tert-butylbenzylidene)piperidin-4-one] gave a melting point of 145 °C.
Regarding `CCN1C/C(=C\c2ccc(Br)cc2)C(=O)/C(=C/c2ccc(Br)cc2)C1` [6a, 3,5-Bis-(4-bromo-benzylidene)-1-ethyl-piperidin-4-one], the melting point came out at 178 °C.
Turning to `O=C1/C(=C/c2ccc(Cl)cc2)CN(Cc2cn(CCNc3ccnc4cc(Cl)ccc34)nn2)C/C1=C\c1ccc(Cl)cc1` [SR15], the IC50 in data set [1] is 3100 ± 1300 nM; in data set [2] (setting [6]), 2.1 ± 0.35 µM; in data set [3], 3100 ± 1800 nM; in data set [4], 3000 ± 310 nM.
`CCN1C/C(=C\c2ccc(F)cc2)C(=O)/C(=C/c2ccc(F)cc2)C1` [6c, 1-Ethyl-3,5-bis(4-fluorobenzylidene)piperidin-4-one]: the melting point was 114 °C.
